Assays:
[1] = biological target: Ribosomal protein S6 kinase alpha-3 (Homo sapiens) (UniProt P51812); details: Compound concentration 1000.0 nM
[2] = biological target: Sodium-dependent noradrenaline transporter (Homo sapiens) (UniProt P23975); details: Compound concentration 10.0 uM
[3] = biological target: Serine/threonine-protein kinase Nek3 (Homo sapiens) (UniProt P51956); details: Compound concentration 1000.0 nM
[4] = test system: Epidermal growth factor receptor (Homo sapiens), P00533 [UNDEFINED MUTATION]; details: Compound concentration 1000.0 nM
[5] = biological target: cGMP-dependent protein kinase 1 (Homo sapiens) (UniProt Q13976); details: Compound concentration 1000.0 nM
[6] = biological target: Serine/threonine-protein kinase BRSK2 (Homo sapiens) (UniProt Q8IWQ3); details: Compound concentration 1000.0 nM
[7] = biological target: Calcium/calmodulin-dependent protein kinase kinase 2 (Homo sapiens) (UniProt Q96RR4); details: Compound concentration 1000.0 nM
[8] = biological target: NUAK family SNF1-like kinase 2 (Homo sapiens) (UniProt Q9H093); details: Compound concentration 1000.0 nM
[9] = biological target: Calcium/calmodulin-dependent protein kinase type 1G (Homo sapiens) (UniProt Q96NX5); details: Compound concentration 1000.0 nM
[10] = biological target: Fibroblast growth factor receptor 2 (Homo sapiens) (UniProt P21802); details: Compound concentration 1000.0 nM
[11] = biological target: Mitogen-activated protein kinase kinase kinase 19 (Homo sapiens) (UniProt Q56UN5); details: Compound concentration 1000.0 nM
[12] = biological target: Ribosomal protein S6 kinase alpha-6 (Homo sapiens) (UniProt Q9UK32); details: Compound concentration 1000.0 nM
[13] = test system: Proto-oncogene tyrosine-protein kinase receptor Ret (Homo sapiens), P07949 [V804L]; details: Compound concentration 1000.0 nM
[14] = biological target: Mitogen-activated protein kinase kinase kinase kinase 2 (Homo sapiens) (UniProt Q12851); details: Compound concentration 1000.0 nM
[15] = biological target: Tyrosine-protein kinase ITK/TSK (Homo sapiens) (UniProt Q08881); details: Compound concentration 1000.0 nM
[16] = biological target: Ephrin type-B receptor 1 (Homo sapiens) (UniProt P54762); details: Compound concentration 1000.0 nM
[17] = biological target: LIM domain kinase 1 (Homo sapiens) (UniProt P53667); details: Compound concentration 1000.0 nM
[18] = biological target: 1-phosphatidylinositol 3-phosphate 5-kinase (Homo sapiens) (UniProt Q9Y2I7); details: Compound concentration 1000.0 nM
[19] = test system: Mast/stem cell growth factor receptor Kit (Homo sapiens), P10721 [L576P]; details: Compound concentration 1000.0 nM
[20] = test system: Mast/stem cell growth factor receptor Kit (Homo sapiens), P10721 [V559D,V654A]; details: Compound concentration 1000.0 nM
[21] = biological target: Calcium/calmodulin-dependent protein kinase type II subunit beta (Homo sapiens) (UniProt Q13554); details: Compound concentration 1000.0 nM
[22] = test system: ALK tyrosine kinase receptor (Homo sapiens), Q9UM73 [C1156Y]; details: Compound concentration 1000.0 nM
[23] = biological target: Serine/threonine-protein kinase MARK2 (Homo sapiens) (UniProt Q7KZI7); details: Compound concentration 1000.0 nM
[24] = biological target: Beta-3 adrenergic receptor (Homo sapiens) (UniProt P13945); details: Compound concentration 10.0 uM
[25] = biological target: Mitogen-activated protein kinase kinase kinase 14 (Homo sapiens) (UniProt Q99558); details: Compound concentration 1000.0 nM
[26] = biological target: Serine/threonine-protein kinase haspin (Homo sapiens) (UniProt Q8TF76); details: Compound concentration 1000.0 nM
[27] = biological target: Calcium/calmodulin-dependent protein kinase type 1B (Homo sapiens) (UniProt Q6P2M8); details: Compound concentration 1000.0 nM
[28] = biological target: Calcium/calmodulin-dependent protein kinase type II subunit gamma (Homo sapiens) (UniProt Q13555); details: Compound concentration 1000.0 nM
[29] = biological target: Mitotic checkpoint serine/threonine-protein kinase BUB1 (Homo sapiens) (UniProt O43683); details: Compound concentration 1000.0 nM
[30] = biological target: Serine/threonine-protein kinase DCLK3 (Homo sapiens) (UniProt Q9C098); details: Compound concentration 1000.0 nM
[31] = biological target: Protein kinase C delta type (Homo sapiens) (UniProt Q05655); details: Compound concentration 1000.0 nM
[32] = biological target: Vascular endothelial growth factor receptor 3 (Homo sapiens) (UniProt P35916); details: Compound concentration 1000.0 nM
[33] = biological target: Serine/threonine-protein kinase PRP4 homolog (Homo sapiens) (UniProt Q13523); details: Compound concentration 1000.0 nM
[34] = biological target: Platelet-derived growth factor receptor beta (Homo sapiens) (UniProt P09619); details: Compound concentration 1000.0 nM
[35] = biological target: Tyrosine-protein kinase Fer (Homo sapiens) (UniProt P16591); details: Compound concentration 1000.0 nM
[36] = biological target: TGF-beta receptor type-2 (Homo sapiens) (UniProt P37173); details: Compound concentration 1000.0 nM
[37] = biological target: Receptor-interacting serine/threonine-protein kinase 2 (Homo sapiens) (UniProt O43353); details: Compound concentration 1000.0 nM
[38] = biological target: Serine/threonine-protein kinase 32B (Homo sapiens) (UniProt Q9NY57); details: Compound concentration 1000.0 nM
[39] = biological target: Serine/threonine-protein kinase Chk2 (Homo sapiens) (UniProt O96017); details: Compound concentration 1000.0 nM
[40] = biological target: Tyrosine-protein kinase SYK (Homo sapiens) (UniProt P43405); details: Compound concentration 1000.0 nM
[41] = test system: Receptor-type tyrosine-protein kinase FLT3 (Homo sapiens), P36888 [R834Q]; details: Compound concentration 1000.0 nM
[42] = biological target: Serine/threonine-protein kinase 4 (Homo sapiens) (UniProt Q13043); details: Compound concentration 1000.0 nM
[43] = biological target: 5-hydroxytryptamine receptor 3A (Homo sapiens) (UniProt P46098); details: Compound concentration 10.0 uM
[44] = biological target: Serine/threonine-protein kinase B-raf (Homo sapiens) (UniProt P15056); details: Compound concentration 1000.0 nM
[45] = test system: Leucine-rich repeat serine/threonine-protein kinase 2 (Homo sapiens), Q5S007 [G2019S]; details: Compound concentration 1000.0 nM

Sequence of Proto-oncogene tyrosine-protein kinase receptor Ret (Homo sapiens), P07949 [V804L] (P07949 whole entry V804L): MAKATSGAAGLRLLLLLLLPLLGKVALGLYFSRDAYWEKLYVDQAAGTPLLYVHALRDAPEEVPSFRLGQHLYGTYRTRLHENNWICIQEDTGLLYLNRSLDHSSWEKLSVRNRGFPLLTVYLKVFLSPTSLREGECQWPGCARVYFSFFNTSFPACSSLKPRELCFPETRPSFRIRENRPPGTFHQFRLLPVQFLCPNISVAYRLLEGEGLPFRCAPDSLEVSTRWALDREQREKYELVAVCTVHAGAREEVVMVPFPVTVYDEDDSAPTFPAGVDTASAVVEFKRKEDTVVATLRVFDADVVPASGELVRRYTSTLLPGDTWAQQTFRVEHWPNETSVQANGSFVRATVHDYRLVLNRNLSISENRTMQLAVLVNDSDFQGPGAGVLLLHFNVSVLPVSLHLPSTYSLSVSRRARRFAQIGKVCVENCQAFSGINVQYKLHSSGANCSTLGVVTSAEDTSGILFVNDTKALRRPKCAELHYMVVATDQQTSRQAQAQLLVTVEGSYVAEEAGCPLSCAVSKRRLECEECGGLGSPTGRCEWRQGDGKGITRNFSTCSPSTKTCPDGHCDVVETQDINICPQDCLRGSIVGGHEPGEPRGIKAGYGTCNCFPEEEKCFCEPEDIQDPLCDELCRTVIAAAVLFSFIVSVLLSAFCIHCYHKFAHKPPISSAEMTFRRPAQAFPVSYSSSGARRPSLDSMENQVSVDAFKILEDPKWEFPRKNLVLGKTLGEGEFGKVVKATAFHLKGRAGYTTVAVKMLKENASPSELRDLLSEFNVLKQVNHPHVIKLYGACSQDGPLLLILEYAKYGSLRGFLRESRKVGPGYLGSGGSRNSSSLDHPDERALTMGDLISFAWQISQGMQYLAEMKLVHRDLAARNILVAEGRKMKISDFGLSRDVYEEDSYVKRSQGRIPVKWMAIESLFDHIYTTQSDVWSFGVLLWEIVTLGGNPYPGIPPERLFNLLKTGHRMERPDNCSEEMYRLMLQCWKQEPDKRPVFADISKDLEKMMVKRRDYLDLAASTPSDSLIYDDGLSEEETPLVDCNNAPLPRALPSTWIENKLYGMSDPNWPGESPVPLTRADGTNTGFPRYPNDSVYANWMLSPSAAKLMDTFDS
Sequence of Calcium/calmodulin-dependent protein kinase type II subunit gamma (Homo sapiens) (Q13555 whole entry): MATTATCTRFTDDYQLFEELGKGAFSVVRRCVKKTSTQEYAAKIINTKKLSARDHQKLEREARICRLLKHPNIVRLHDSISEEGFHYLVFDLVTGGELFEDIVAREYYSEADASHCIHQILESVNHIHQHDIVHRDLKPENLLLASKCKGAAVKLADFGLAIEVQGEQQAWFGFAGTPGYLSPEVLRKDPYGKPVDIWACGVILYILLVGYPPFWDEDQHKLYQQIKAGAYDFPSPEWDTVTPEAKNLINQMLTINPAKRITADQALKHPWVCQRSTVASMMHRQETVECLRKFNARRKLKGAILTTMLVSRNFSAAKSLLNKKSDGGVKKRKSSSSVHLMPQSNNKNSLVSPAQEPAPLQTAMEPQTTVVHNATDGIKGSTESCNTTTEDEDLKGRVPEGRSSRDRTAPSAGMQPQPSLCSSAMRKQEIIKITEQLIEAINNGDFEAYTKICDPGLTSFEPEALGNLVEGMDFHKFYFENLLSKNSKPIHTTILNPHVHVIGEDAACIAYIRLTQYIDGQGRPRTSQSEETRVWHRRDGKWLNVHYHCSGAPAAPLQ
Sequence of Tyrosine-protein kinase ITK/TSK (Homo sapiens) (Q08881 whole entry): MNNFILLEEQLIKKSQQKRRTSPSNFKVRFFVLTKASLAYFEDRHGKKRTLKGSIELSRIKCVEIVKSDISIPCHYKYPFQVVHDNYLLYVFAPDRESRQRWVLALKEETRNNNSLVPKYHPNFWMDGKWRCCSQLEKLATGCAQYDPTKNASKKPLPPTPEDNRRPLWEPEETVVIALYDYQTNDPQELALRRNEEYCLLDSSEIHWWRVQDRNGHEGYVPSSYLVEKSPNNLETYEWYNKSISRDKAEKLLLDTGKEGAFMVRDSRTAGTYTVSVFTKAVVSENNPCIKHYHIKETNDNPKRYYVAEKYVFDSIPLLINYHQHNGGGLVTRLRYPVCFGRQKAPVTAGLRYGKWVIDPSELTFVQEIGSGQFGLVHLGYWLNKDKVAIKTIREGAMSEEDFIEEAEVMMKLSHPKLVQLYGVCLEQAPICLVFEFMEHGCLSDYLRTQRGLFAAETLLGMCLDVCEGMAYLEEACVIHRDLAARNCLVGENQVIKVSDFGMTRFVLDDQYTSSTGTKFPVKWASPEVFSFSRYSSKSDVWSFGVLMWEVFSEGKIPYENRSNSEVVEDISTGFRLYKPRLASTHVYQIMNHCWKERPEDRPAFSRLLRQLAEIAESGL
Sequence of Calcium/calmodulin-dependent protein kinase kinase 2 (Homo sapiens) (Q96RR4 2-588 limits assumed): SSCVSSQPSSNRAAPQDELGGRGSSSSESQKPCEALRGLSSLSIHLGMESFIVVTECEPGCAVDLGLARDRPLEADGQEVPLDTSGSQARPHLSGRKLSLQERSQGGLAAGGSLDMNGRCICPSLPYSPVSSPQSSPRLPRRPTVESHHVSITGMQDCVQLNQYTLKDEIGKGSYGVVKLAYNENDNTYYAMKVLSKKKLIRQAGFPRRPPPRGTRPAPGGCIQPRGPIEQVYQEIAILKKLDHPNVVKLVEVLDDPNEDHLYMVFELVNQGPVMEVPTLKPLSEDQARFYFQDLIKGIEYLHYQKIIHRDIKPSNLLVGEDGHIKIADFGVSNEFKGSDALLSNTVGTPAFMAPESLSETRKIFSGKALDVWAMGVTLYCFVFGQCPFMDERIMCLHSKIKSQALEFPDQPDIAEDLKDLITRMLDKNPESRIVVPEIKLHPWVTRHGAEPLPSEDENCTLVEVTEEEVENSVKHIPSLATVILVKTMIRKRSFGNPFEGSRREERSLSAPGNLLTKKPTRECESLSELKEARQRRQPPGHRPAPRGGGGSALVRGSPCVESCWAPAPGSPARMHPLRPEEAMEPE
Sequence of Ribosomal protein S6 kinase alpha-6 (Homo sapiens) (Q9UK32 whole entry): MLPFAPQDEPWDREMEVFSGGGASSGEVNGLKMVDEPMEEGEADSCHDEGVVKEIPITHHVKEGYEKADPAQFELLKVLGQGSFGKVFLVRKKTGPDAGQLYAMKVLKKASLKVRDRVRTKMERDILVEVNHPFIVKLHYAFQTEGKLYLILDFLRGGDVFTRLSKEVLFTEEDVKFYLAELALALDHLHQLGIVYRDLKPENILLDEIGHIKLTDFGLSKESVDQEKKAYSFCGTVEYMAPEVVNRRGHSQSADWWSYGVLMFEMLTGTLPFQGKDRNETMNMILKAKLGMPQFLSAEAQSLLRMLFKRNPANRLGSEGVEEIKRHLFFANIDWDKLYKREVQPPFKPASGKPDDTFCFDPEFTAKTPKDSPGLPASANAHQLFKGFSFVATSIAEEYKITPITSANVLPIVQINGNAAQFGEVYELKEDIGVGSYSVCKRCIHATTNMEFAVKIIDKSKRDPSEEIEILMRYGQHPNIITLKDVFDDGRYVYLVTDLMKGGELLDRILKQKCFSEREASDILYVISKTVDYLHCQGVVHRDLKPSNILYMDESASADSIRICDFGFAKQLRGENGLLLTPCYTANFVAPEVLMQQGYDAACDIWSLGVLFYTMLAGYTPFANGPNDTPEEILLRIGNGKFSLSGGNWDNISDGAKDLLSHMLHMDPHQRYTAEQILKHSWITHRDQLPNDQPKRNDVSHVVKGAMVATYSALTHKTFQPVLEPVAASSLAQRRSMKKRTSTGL
Sequence of Serine/threonine-protein kinase Chk2 (Homo sapiens) (O96017 whole entry): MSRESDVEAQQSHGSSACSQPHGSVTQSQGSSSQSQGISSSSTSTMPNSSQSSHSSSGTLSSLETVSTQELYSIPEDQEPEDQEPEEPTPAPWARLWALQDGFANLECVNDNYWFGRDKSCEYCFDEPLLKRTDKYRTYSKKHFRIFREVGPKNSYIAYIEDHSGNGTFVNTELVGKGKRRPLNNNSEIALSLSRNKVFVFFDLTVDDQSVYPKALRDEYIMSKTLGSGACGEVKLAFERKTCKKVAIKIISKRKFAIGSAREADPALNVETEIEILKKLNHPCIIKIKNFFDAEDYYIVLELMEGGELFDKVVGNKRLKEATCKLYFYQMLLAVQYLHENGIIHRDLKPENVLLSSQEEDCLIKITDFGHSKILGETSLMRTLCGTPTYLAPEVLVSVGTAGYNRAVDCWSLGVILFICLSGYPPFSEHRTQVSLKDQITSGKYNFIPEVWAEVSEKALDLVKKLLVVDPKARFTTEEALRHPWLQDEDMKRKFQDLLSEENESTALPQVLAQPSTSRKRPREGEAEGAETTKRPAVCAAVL
Sequence of TGF-beta receptor type-2 (Homo sapiens) (P37173 whole entry): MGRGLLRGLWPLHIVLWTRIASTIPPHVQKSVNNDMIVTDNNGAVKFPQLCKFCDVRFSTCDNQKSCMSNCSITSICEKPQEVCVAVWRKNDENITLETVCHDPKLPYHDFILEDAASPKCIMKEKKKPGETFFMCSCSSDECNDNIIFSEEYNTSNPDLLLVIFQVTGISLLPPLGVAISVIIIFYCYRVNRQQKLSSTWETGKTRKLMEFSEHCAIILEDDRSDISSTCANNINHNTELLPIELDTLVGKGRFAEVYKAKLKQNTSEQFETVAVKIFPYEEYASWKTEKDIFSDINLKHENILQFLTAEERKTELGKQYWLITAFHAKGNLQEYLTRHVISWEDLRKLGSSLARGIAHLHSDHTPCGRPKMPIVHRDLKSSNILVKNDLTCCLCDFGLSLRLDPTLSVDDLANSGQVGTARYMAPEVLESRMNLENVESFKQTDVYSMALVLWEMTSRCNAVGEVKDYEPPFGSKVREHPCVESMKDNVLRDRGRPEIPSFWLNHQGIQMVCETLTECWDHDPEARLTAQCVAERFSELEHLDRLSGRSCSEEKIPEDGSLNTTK

COc1cccc(CNC(=O)c2nc3scc(COCc4ccc(C(=O)O)cc4)c3c(=O)[nH]2)c1 [T-26c]
inactive: residual activity [1] 56.5% | inhibition [2] 12.6% | residual activity [3] 78.1% | residual activity [4] 66.1% | residual activity [5] 100% | residual activity [6] 77.3% | residual activity [7] 100% | residual activity [8] 76.4% | residual activity [9] 100% | residual activity [10] 100% | residual activity [11] 79.2% | residual activity [12] 100% | residual activity [13] 76.7% | residual activity [14] 83% | residual activity [15] 86.8% | residual activity [16] 90.9% | residual activity [17] 96.8% | residual activity [18] 100% | residual activity [19] 100% | residual activity [20] 98% | residual activity [21] 96.8% | residual activity [22] 100% | residual activity [23] 100% | inhibition [24] 7.44% | residual activity [25] 100% | residual activity [26] 92.5% | residual activity [27] 70.7% | residual activity [28] 100% | residual activity [29] 70.2% | residual activity [30] 100% | residual activity [31] 87.7% | residual activity [32] 100% | residual activity [33] 97.3% | residual activity [34] 99% | residual activity [35] 100% | residual activity [36] 97% | residual activity [37] 100% | residual activity [38] 93.4% | residual activity [39] 92% | residual activity [40] 100% | residual activity [41] 77.9% | residual activity [42] 75% | inhibition [43] 6.87% | residual activity [44] 72.8% | residual activity [45] 94.6%

Source: ChEMBL document CHEMBL4507300 (2021)
